This passage reports melting point results from patent US6369059B1, “Tetracyclic derivatives, process of preparation and use” (ICOS Corporation, priority 1994, dated 2002).

With `O=C1NCC(=O)N2[C@@H](c3ccc4c(c3)OCO4)c3[nH]c4ccccc4c3C[C@H]12` (relative stereo) [Example 4, Cis-2,3,6,7,12,12a-Hexahydro-6-(3,4-methylenedioxyphenyl)-pyrazino[2′,1′:6,1]pyrido[3,4-b]indole-1,4-dione], the melting point is 283 to 285 °C.

As to `O=C1[C@H]2Cc3c([nH]c4ccccc34)[C@H](c3ccc4c(c3)OCO4)N2C(=O)CN1Cc1ccccn1` (relative stereo) [Example 10, Cis-2,3,6,7,12,12a-Hexahydro-2-(2-pyridylmethyl)-6-(3,4-methylenedioxyphenyl)-pyrazino[2′,1′:6,1]pyrido[3,4-b]indole-1,4-dione], the melting point is 285 to 286 °C.

With `CCCN1CC(=O)N2[C@@H](c3ccc4c(c3)OCO4)c3[nH]c4ccccc4c3C[C@@H]2C1=O` (relative stereo) [Example 15, Cis-2,3,6,7,12,12a-Hexahydro-6-(3,4-methylenedioxyphenyl)-2-propyl-pyrazino[2′,1′:6,1]pyrido[3,4-b]indole-1,4-dione], the melting point lay within 270 to 271 °C.

`O=C1[C@H]2Cc3c([nH]c4ccccc34)[C@H](c3ccc4c(c3)OCO4)N2C(=O)CN1C1CC1` (relative stereo) [Example 17, Cis-2,3,6,7,12,12a-Hexahydro-2cyclopropyl-6-(3,4-methylenedioxyphenyl)-pyrazino[2′,1′:6,1]pyrido[3,4-b]indole-1,4-dione] returned a melting point of 290 to 292 °C.

In the case of `CCCCN1CC(=O)N2[C@@H](c3ccc4c(c3)OCO4)c3[nH]c4ccccc4c3C[C@@H]2C1=O` (relative stereo) [Example 18, Cis-2,3,6,7,12,12a-Hexahydro-2-butyl-6-(3,4-methylenedioxyphenyl)-pyrazino[2′,1′:6,1]pyrido[3,4-b]indole-1,4-dione], the melting point lay within 241 to 243 °C.

Compound `O=C1[C@H]2Cc3c([nH]c4ccccc34)[C@H](c3ccc4c(c3)OCO4)N2C(=O)CN1CC1CC1` (relative stereo) [Example 20, Cis-2,3,6,7,12,12a-Hexahydro-2-cyclopropylmethyl-6-(3,4-methylenedioxyphenyl)-pyrazino[2′,1′:6,1]pyrido[3,4-b]indole-1,4-dione] returned a melting point of 217 to 218 °C.

Take `O=C1[C@H]2Cc3c([nH]c4ccccc34)[C@H](c3ccc4c(c3)OCO4)N2C(=O)CN1C1CCCC1` (relative stereo) [Example 21, Cis-2,3,6,7,12,12a-Hexahydro-2-cyclopentyl-6-(3,4-methylenedioxyphenyl)-pyrazino[2′,1′:6,1]pyrido[3,4-b]indole-1,4-dione]: the melting point came to 270 °C.

In the case of `O=C1[C@H]2Cc3c([nH]c4ccccc34)[C@H](c3ccc4c(c3)OCO4)N2C(=O)CN1Cc1ccc(F)cc1` (relative stereo) [Example 24, Cis-2,3,6,7,12,12a-Hexahydro-2-(4-fluorobenzyl)6-(3,4-methylenedioxyphenyl)-pyrazino[2′,1′:6,1]pyrido[3,4-b]indole-1,4-dione], the melting point lay within 281 to 283 °C.

Consider `COc1ccc([C@H]2c3[nH]c4ccccc4c3C[C@H]3C(=O)N(C)CC(=O)N23)cc1` (relative stereo) [Example 26, Trans-2,3,6,7,12,12a-Hexahydro-6-(4-methoxyphenyl)-2-methyl-pyrazino[2′,1′:6,1]pyrido[3,4-b]indole-1,4-dione], for which the melting point was in the range of 225 to 228 °C.

On to `CCN1CC(=O)N2[C@@H](c3ccc(OC)cc3)c3[nH]c4ccccc4c3C[C@@H]2C1=O` (relative stereo) [Example 27, Cis-2,3,6,7,12,12a-Hexahydro-2-ethyl-6(4-methoxyphenyl)-pyrazino[2′,1′:6,1]pyrido[3,4-b]indole-1,4-dione], for which the melting point was in the range of 245 to 255 °C.

In the case of `CCCCN1CC(=O)N2[C@@H](c3ccc(OC)cc3)c3[nH]c4ccccc4c3C[C@@H]2C1=O` (relative stereo) [Example 29, Cis-2,3,6,7,12,12a-Hexahydro-2-butyl-6-(4-methoxyphenyl)-pyrazino[2′,1′:6,1]pyrido[3,4-b]indole-1,4-dione], the melting point was 157 °C.

For `CCCCN1CC(=O)N2[C@@H](c3ccc(OC)cc3)c3[nH]c4ccccc4c3C[C@H]2C1=O` (relative stereo) [Example 30, Trans-2,3,6,7,12,12a-Hexahydro-2-butyl-6-(4-methoxyphenyl)-pyrazino[2′,1′:6,1]pyrido[3,4-b]indole-1,4-dione], the melting point fell in the range of 212 to 214 °C.

Compound `COc1cccc([C@H]2c3[nH]c4ccccc4c3C[C@@H]3C(=O)N(C)CC(=O)N23)c1` (relative stereo) [Example 33, Cis-2,3,6,7,12,12a-Hexahydro-6-(3-methoxyphenyl)-2-methyl-pyrazino[2′,1′:6,1]pyrido[3,4-b]indole-1,4-dione] showed a melting point of 267 to 269 °C.

For `CCOc1ccc([C@H]2c3[nH]c4ccccc4c3C[C@@H]3C(=O)N(C)CC(=O)N23)cc1` (relative stereo) [Example 34, Cis-2,3,6,7,12,12a-Hexahydro-6-(4-ethoxyphenyl)-2methyl-pyrazino[2′,1′:6,1]pyrido[3,4-b]indole-1,4-dione], the melting point was 247 to 248 °C.

As to `CN1CC(=O)N2[C@@H](c3ccc4c(c3)OCCO4)c3[nH]c4ccccc4c3C[C@@H]2C1=O` (relative stereo) [Example 38, Cis-2,3,6,7,12,12a-Hexahydro-6-(3,4-ethylenedioxyphenyl)-2-methyl-pyrazino[2′,1′:6,1]pyrido[3,4-b]indole-1,4-dione], the melting point fell in the range of 303 to 305 °C.

Take `CCCCN1CC(=O)N2[C@@H](c3ccc(Cl)cc3)c3[nH]c4ccccc4c3C[C@@H]2C1=O` (relative stereo) [Example 42, Cis-2,3,6,7,12,12a-Hexahydro-2-butyl-6-(4-chlorophenyl)-pyrazino[2′,1′:6,1]pyrido[3,4-b]indole-1,4-dione]: the melting point is 164 to 166 °C.

Turning to `CN1CC(=O)N2[C@@H](c3ccc(Cl)c(Cl)c3)c3[nH]c4ccccc4c3C[C@@H]2C1=O` (relative stereo) [Example 43, Cis-2,3,6,7,12,12a-Hexahydro-6-(3,4-dichlorophenyl)-2-methyl-pyrazino[2′,1′:6,1]pyrido[3,4-b]indole-1,4-dione], the melting point was over 260 °C.

Compound `CCCCN1CC(=O)N2[C@@H](c3ccccc3)c3[nH]c4ccccc4c3C[C@@H]2C1=O` (relative stereo) [Example 44, Cis-2,3,6,7,12,12a-Hexahydro-2-butyl-6-phenyl-pyrazino[2′,1′:6,1]pyrido[3,4-b]indole-1,4-dione] had a melting point of 243 to 245 °C.

`O=C1[C@@H]2Cc3c([nH]c4ccccc34)[C@H](c3ccccc3)N2C(=O)CN1Cc1ccccc1` (relative stereo) [Example 46, Trans-2,3,6,7,12,12a-Hexahydro-2-benzyl-6-phenyl-pyrazino[2′,1′:6,1]pyrido[3,4-b]indole-1,4-dione] registered a melting point of 284 °C.

For the compound `CN1CC(=O)N2[C@@H](c3ccc4ccccc4c3)c3[nH]c4ccccc4c3C[C@@H]2C1=O` (relative stereo) [Example 50, Cis-2,3,6,7,12,12a-Hexahydro-2-methyl-6-(2-naphthyl)-pyrazino[2′,1′:6,1]pyrido[3,4-b]indole-1,4-dione], the melting point was over 260 °C.

`CCCCN1CC(=O)N2[C@@H](c3cccs3)c3[nH]c4ccccc4c3C[C@@H]2C1=O` (relative stereo) [Example 51, Cis-2,3,6,7,12,12a-Hexahydro-2-butyl-6-(2-thienyl)-pyrazino[2′,1′:6,1]pyrido[3,4-b]indole-1,4-dione] displayed a melting point of 226 °C.

`O=C1[C@H]2Cc3c([nH]c4ccccc34)[C@H](c3ccc(Br)s3)N2C(=O)CN1CC1CC1` (relative stereo) [Example 54, Cis-2,3,6,7,12,12a-Hexahydro-6-(5-bromo-2-thienyl)-2-cyclopropylmethyl-pyrazino[2′,1′:6,1]pyrido[3,4-b]indole-1,4-dione]: the melting point was 190 °C.

Regarding `O=C1[C@H]2Cc3c([nH]c4ccccc34)[C@H](c3ccc(Br)s3)N2C(=O)CN1C1CCCC1` (relative stereo) [Example 55, Cis-2,3,6,7,12,12a-Hexahydro-6-(5-bromo-2-thienyl)-2-cyclopentyl-pyrazino[2′,1′:6,1]pyrido[3,4-b]indole-1,4-dione], the melting point turned out to be 252 °C.

Take `CN1CC(=O)N2[C@@H](c3ccsc3)c3[nH]c4ccccc4c3C[C@@H]2C1=O` (relative stereo) [Example 57, Cis-2,3,6,7,12,12a-Hexahydro-2-methyl-6-(3-thienyl)-pyrazino[2′,1′:6,1]pyrido[3,4-b]indole-1,4-dione]: the melting point was in the range of 290 to 295 °C.

For the compound `Cc1ccc([C@H]2c3[nH]c4ccccc4c3C[C@@H]3C(=O)N(C)CC(=O)N23)cc1` (relative stereo) [Example 61, Cis-2,3,6,7,12,12a-Hexahydro-2-methyl-6-(4-methylphenyl)-pyrazino[2′,1′:6,1]pyrido[3,4-b]indole-1,4-dione], the melting point was over 260 °C.

`Cc1ccc([C@H]2c3[nH]c4ccccc4c3C[C@@H]3C(=O)N(C(C)C)CC(=O)N23)cc1` (relative stereo) [Example 62, Cis-2,3,6,7,12,12a-Hexahydro-2-isopropyl-6-(4-methylphenyl)-pyrazino[2′,1′:6,1]pyrido[3,4-b]indole-1,4-dione] registered a melting point of 170 °C.

With `Cc1ccc([C@H]2c3[nH]c4ccccc4c3C[C@@H]3C(=O)N(CC4CC4)CC(=O)N23)cc1` (relative stereo) [Example 64, Cis-2,3,6,7,12,12a-Hexahydro-2-cyclopropylmethyl-6-(4-methylphenyl)-pyrazino[2′,1′:6,1]pyrido[3,4-b]indole-1,4-dione], the melting point came to 194 °C.

In the case of `Cc1cccc([C@H]2c3[nH]c4ccccc4c3C[C@@H]3C(=O)N(C)CC(=O)N23)c1` (relative stereo) [Example 65, Cis-2,3,6,7,12,12a-Hexahydro-2-methyl-6-(3-methylphenyl)-pyrazino[2′,1′:6,1]pyrido[3,4-b]indole-1,4-dione], the melting point was over 260 °C.

As a reminder, the melting point is the temperature of the solid-liquid transition.
